Data published in patent US9394238B2, “Process for the production of carnitine from β-lactones” (Lonza Ltd., priority 2010, dated 2016).

Legend:
rat = assay: Acute toxicity LD50 in rat; type: in vivo

SMILES: O=C(O)/C=C/CO [hydroxycrotonic acid]
- Ames-Test (Ames-Test (mutagenicity)): negative
- LD50 (rat) (rat): > 2000 mg/kg bw
